Data taken from patent US20110071155A1, “Tricyclic Nitrogen Containing Compounds And Their Use As Antibacterials” (priority 2008, published 2011).
Converted amounts (≈) assume the structure as drawn.

Columns and labels:
[1] = test system: Mycobacterium tuberculosis H37Rv; experiment: Mycobacterium tuberculosis H37Rv Inhibition Assay (resazurin MIC); format: cell-based; details: ATCC 25618 / H37Rv, H37Rv strain (ATCC25618), Middlebrook 7H9+ADC, six days at 37° C., resazurin fluorescence after 48 hours, read-out: MtB MIC
[2] = Antimicrobial Activity Assay: whole-cell broth microdilution (CLSI M7-A7); format: cell-based, Gram-positive and Gram-negative organisms; details: at least one of S. aureus, S. pneumoniae, E. faecalis, H. influenzae, M. catarrhalis, E. coli, read-out: MIC against at least one of the organisms listed
Experimental: Antimicrobial Activity Assay: Whole-cell antimicrobial activity was determined by broth microdilution using the Clinical Laboratory Standards Institute (CLSI) recommended procedure, Document M7-A7, “Methods for Dilution Susceptibility Tests for Bacteria that Grow Aerobically”. Compounds were evaluated against Gram-positive organisms, including Staphylococcus aureus, Streptococcus pneumoniae, and Enterococcus faecalis. In addition, compounds were evaluated against Gram-negative organisms including Haemophilus influenzae, Moraxella catarrhalis, and Escherichia coli. The minimum inhibitory concentration (MIC) was determined as the lowest concentration of compound that inhibited visible growth. A mirror reader was used to assist in determining the MIC endpoint.

SMILES | MIC [1] | MIC [2]
O=c1ccc2ncc(=O)n3c2n1CC3CN1CCC(NC/C=C/c2cncc(F)c2)CC1 (stereo not drawn) [Example 5, 2-[(4-{[(2E)-3-(5-fluoro-3-pyridinyl)-2-propen-1-yl]amino}-1-piperidinyl)methyl]-1,2-dihydro-3H,8H-2a,5,8a-triazaacenaphthylene-3,8-dione] | 0.273 µg/mL (≈ 0.625 µM) | 
O=c1ccc2ncc(=O)n3c2n1CC3CN1CCC(NCCNc2cccc(F)c2)CC1 (stereo not drawn) [Example 7, 2-{[4-({2-[(3-Fluorophenyl)amino]ethyl}amino)-1-piperidinyl]methyl}-1,2-dihydro-3H,8H-2a,5,8a-triazaacenaphthylene-3,8-dione] | 0.071 µg/mL (≈ 0.162 µM) | 
O=c1ccc2ncc(=O)n3c2n1CC3CN1CCC(NCCOc2cccc(F)c2)CC1 (stereo not drawn) [Example 6, 2-{[4-({2-[(3-fluorophenyl)oxy]ethyl}amino)-1-piperidinyl]methyl}-1,2-dihydro-3H,8H-2a,5,8a-triazaacenaphthylene-3,8-dione] | 0.824 µg/mL (≈ 1.87 µM) | < 2 µg/mL
O=c1ccc2ncc(=O)n3c2n1CC3CN1CCC(NCCCc2cccc(F)c2)CC1 (stereo not drawn) [Example 3, 2-[(4-{[3-(3-fluorophenyl)propyl]amino}-1-piperidinyl)methyl]-1,2-dihydro-3H,8H-2a,5,8a-triazaacenaphthylene-3,8-dione] | 0.82 µg/mL (≈ 1.87 µM) | < 2 µg/mL
O=c1ccc2ccc(=O)n3c2n1C[C@H]3CN1CCC(NC/C=C/c2cncc(F)c2)CC1 [Example 4, (1R)-1-[(4-{[(2E)-3-(5-fluoro-3-pyridinyl)-2-propen-1-yl]amino}-1-piperidinyl)methyl]-1,2-dihydro-4H,9H-imidazo[1,2,3-ij]-1,8-naphthyridine-4,9-dione] | 0.544 µg/mL (≈ 1.25 µM) | < 2 µg/mL
O=c1ccc2ccc(=O)n3c2n1C[C@H]3CN1CCC(NC/C=C/c2cc(F)ccc2F)CC1 [Example 1, (1R)-1-[(4-{[(2E)-3-(2,5-difluorophenyl)-2-propen-1-yl]amino}-1-piperidinyl)methyl]-1,2-dihydro-4H,9H-imidazo[1,2,3-ij]-1,8-naphthyridine-4,9-dione] | 0.071 µg/mL (≈ 0.157 µM) | < 2 µg/mL
O=c1ccc2ncc(=O)n3c2n1CC3CN1CCC(NC/C=C/c2cccc(F)c2)CC1 (stereo not drawn) [Example 2, 2-[(4-{[(2E)-3-(3-fluorophenyl)-2-propen-1-yl]amino}-1-piperidinyl)methyl]-1,2-dihydro-3H,8H-2a,5,8a-triazaacenaphthylene-3,8-dione] | 0.102 µg/mL (≈ 0.234 µM) | < 2 µg/mL
